{
  "source": "patent US10035814B2",
  "about": "“Guanine analogs as telomerase substrates and telomere length affectors” (Geron Corporation, priority 2011, dated 2018)",
  "key": {"telomerase [1]": {"target": "T1, telomerase (Homo sapiens (Human), UniProt O14746)", "T1 sequence (O14746 whole entry)": "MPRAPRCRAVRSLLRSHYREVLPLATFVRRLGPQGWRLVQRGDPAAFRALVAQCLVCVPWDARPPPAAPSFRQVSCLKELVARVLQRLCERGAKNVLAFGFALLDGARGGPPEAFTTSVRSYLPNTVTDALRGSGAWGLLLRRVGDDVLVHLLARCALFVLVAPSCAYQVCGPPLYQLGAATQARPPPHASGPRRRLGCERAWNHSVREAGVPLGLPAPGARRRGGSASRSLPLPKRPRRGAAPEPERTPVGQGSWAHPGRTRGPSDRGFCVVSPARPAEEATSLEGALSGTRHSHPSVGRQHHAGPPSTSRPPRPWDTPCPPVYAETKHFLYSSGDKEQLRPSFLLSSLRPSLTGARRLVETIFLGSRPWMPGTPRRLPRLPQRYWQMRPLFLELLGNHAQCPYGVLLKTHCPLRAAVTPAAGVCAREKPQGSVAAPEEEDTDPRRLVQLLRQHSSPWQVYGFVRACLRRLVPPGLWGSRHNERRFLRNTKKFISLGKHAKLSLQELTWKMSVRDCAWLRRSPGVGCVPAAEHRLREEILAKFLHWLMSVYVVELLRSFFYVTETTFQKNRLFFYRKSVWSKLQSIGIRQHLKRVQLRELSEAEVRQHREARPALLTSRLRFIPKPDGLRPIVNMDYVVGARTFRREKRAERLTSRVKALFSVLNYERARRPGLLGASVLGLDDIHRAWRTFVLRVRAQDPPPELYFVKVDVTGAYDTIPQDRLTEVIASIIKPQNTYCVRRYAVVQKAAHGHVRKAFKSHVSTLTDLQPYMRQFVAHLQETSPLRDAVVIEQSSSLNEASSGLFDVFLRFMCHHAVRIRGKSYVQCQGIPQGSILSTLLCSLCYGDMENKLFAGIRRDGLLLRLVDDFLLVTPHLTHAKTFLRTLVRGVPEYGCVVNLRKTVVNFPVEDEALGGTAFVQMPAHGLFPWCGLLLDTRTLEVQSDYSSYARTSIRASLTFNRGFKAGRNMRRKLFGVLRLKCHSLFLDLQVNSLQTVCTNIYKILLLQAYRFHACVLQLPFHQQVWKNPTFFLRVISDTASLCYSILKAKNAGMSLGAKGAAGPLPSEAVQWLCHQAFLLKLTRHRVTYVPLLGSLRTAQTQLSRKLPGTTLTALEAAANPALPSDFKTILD", "test": "Primer extension assay for telomerase activity", "format": "biochemical", "conditions": "for IC50: purified telomerase, dGTP 50 μM", "procedure": "Purified human telomerase was incubated with d(TTAGGG)3 (SEQ ID NO: 1) and deoxy-nucleoside triphosphates for 90 minutes at 37° C. All reactions were done in the presence of 200 dTTP and 10 μM dATP (50,000 cpm/pmol a-^33P-dATP). Activity was determined by incubating affinity purified telomerase extract with 1 μM primer [d(TTAGGG)3] (SEQ ID NO: 1), 200 μM dTTP, 50 μM dGTP, 10 μM dATP, 10 μCi [α-^33P]dATP (2000-4000 Ci/mmol) in a buffer containing 50 mM (N-2-hydroxyethyl piperazine-N′-3 propanesulfonic acid)-NaOH pH 8.5, 1 mM MgCl2, 1 mM DTT, 5% glycerol, 0.5 mM EGTA and 100 mM KOAc in a final reaction volume of 40 μl. Primer extension products were analyzed on a 15% polyacrylamide gel containing 7 M urea. A characteristic telomerase ladder has multiple bands. If a compound is not a substrate then (TTAGGG)3TTA (21 nt) (SEQ ID NO: 2). If a compound is a chain terminator then (TTAGGG)3TTAG* (22 nt) (SEQ ID NO: 3).\nPurified human telomerase was incubated with d(TTAGGG)3 (SEQ ID NO: 1) and deoxy-nucleoside triphosphates for 90 minutes at 37° C. All reactions were done in the presence of 200 dTTP and 10 μM dATP (50,000 cpm/pmol a-^33P-dATP). Activity was determined by incubating affinity purified telomerase extract with […] primer [d(TTAGGG)3] (SEQ ID NO: 1), […] [α-^33P]dATP (2000-4000 Ci/mmol) in a buffer containing 50 mM (N-2-hydroxyethyl piperazine-N′-3 propanesulfonic acid)-NaOH pH 8.5, 1 mM MgCl2, 1 mM DTT, 5% glycerol, 0.5 mM EGTA and 100 mM KOAc in a final reaction volume of 40 μl. Primer extension products were analyzed on a 15% polyacrylamide gel containing 7 M urea. A characteristic telomerase ladder has multiple bands. If a compound is not a substrate then (TTAGGG)3TTA (21 nt) (SEQ ID NO: 2). If a compound is a chain terminator then (TTAGGG)3TTAG* (22 nt) (SEQ ID NO: 3)."}, "telomerase [2]": {"target": "T1, telomerase", "test": "Flash plate (Flashplate) telomerase assay", "format": "biochemical", "conditions": "affinity purified telomerase extract, 20 μM dGTP; read-out: Flashplate IC 50", "procedure": "Determining IC50 for PMPGpp, (R)-PMPGpp and (S)-PMPGpp. Telomerase activity was determined using the “flash-plate” assay with concentrations of PMPGpp ranging from 0.05 μM to 50 μM.\nCompound was pre-incubated with affinity purified telomerase extract, 100 nM primer [5′ biotin-d(AATCCGTCGAGCAGAGTT)] (SEQ ID NO: 4), 120 μM dTTP, 20 μM dGTP, […], in a buffer containing 50 mM Tris-Acetate (pH 8.2), 1 mM MgCl2, 1 mM DTT, 0.5 mM EGTA and 150 mM KOAc, 5.4 nM ^33P-labeled [d([…])] (SEQ ID NO: 5 (6×10^9 cpm/nmol) in a final reaction volume of 30 μl. Incubations were done for 90 min at 37° C. Following stoppage of the reaction with EDTA (10 mM), the reaction products were captured in a streptavidin coated 96 well FlashPlate. After a 2 hr capture period for the primer, the plates were washed five times (2×SSC, 0.1% SDS, 10 mM EDTA) and counted.\nCompound was pre-incubated with affinity purified telomerase extract, 100 nM primer [5′ biotin-d(AATCCGTCGAGCAGAGTT)] (SEQ ID NO: 4), 120 μM dTTP, 20 μM dGTP, 10 μM dATP, in a buffer containing 50 mM Tris-Acetate (pH 8.2), 1 mM MgCl2, 1 mM DTT, 0.5 mM EGTA and 150 mM KOAc, 5.4 nM ^33P-labeled [d([…])] […]"}, "telomerase in HT3 cells": {"target": "telomerase in HT3 cells (Homo sapiens (Human), UniProt O14746)", "sequence (O14746 whole entry)": "as above", "sequence (O60832 whole entry partner)": "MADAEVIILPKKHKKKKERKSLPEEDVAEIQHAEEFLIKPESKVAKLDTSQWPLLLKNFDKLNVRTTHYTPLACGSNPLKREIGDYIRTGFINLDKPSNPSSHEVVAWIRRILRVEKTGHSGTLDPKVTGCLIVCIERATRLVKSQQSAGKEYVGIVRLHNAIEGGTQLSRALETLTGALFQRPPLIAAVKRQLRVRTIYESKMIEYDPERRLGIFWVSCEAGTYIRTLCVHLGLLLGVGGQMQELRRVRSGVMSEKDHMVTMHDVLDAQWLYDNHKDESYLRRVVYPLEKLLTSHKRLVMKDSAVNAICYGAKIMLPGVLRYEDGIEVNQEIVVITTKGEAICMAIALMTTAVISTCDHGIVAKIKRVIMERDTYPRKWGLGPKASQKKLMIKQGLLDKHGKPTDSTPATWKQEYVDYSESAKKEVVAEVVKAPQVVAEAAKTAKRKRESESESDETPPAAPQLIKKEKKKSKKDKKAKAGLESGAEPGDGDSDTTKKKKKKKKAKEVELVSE", "sequence (Q9NX24 whole entry partner)": "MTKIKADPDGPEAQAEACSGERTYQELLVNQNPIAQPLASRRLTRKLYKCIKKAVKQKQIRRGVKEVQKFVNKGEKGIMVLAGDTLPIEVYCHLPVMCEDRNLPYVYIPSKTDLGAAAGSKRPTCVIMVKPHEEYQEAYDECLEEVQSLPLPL", "sequence (Q9NPE3 whole entry partner)": "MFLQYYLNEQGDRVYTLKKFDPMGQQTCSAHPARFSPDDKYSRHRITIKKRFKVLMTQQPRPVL", "sequence (Q9NY12 whole entry partner)": "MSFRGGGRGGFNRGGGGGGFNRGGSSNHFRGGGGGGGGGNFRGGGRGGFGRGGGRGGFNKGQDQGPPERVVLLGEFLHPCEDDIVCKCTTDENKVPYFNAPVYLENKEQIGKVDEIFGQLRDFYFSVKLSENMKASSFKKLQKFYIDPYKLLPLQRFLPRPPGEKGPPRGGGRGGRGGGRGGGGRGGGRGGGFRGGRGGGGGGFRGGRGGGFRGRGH", "sequence (Q9BUR4 whole entry partner)": "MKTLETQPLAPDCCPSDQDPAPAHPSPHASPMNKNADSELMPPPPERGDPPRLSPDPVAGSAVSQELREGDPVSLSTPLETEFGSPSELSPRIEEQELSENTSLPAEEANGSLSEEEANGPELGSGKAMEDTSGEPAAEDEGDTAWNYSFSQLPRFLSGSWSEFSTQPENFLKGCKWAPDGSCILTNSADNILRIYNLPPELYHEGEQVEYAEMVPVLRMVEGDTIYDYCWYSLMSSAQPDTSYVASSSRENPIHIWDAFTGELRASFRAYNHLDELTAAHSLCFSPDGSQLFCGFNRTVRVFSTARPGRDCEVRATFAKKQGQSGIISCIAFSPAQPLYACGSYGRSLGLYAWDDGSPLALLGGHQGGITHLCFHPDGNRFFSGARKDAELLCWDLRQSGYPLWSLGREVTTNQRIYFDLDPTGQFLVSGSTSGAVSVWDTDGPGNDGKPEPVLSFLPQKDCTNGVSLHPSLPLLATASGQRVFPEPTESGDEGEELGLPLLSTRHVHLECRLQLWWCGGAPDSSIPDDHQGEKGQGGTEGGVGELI", "test": "Ex vivo TRAP assay in HT3 cells", "format": "cell-based", "procedure": "HT3 cells were treated for three days with increasing concentrations of PMPG-diisopropyloxy ester ranging from 0.2 μM to 20 μM. Cells (HT3 RPMI+10% PBS) were incubated with compound for 24 hr after which PSTS primer (phosphorothioate-d(AATCCGTCGAGCAGAGTT (SEQ ID NO: 6) containing a 5′ Cy-5 label) (7.5 μM) and fresh compound are added for an additional 24 hr. Cells were lysed and endogenous telomerase inactivated by heating (15 min, 75° C.). Products were amplified by 30 cycles of PCR under TRAP conditions set forth above and quantified. The results of two independent experiments are shown in Table 4.\nHT3 cells were treated for three days with increasing concentrations of one or more of the indicated compounds ranging from 0.2 μM to 20 μM. Cells (HT3 RPMI+10% FBS) were incubated with compound for 24 hours, after which PSTS primer (phosphorothioate-d AATCCGTCGAGCAGAGTT (SEQ ID NO: 6) containing a 5′ Cy-5 label) (7.5 μM) and fresh compound were added for an additional 24 hours. Cells were lysed and endogenous telomerase inactivated by heating (15 minutes, 75° C.). Products were amplified by 30 cycles of PCR under TRAP conditions set forth in Kim et al., Science 266:2011, […] (which reference is incorporated herein in its entirety) and quantified."}, "A549 cells": {"test_system": "A549 cells", "test": "Telomere repeat fragment (TRF) assay using A549 cells", "format": "cell-based", "conditions": "10 μM and 5 μM, approximately 70 population doublings", "procedure": "(§1) Approximately 1-2 μg of genomic DNA from each cell line or tissue was digested by Hinf/RsaI for 2 hours at 37° C. Following DNA digestion, the genomic DNA fragments were separated on a 0.8% agarose gel and transferred to a nylon membrane by blotting. All membrane hybridization and detection reagents were provided in the TeloTAGGG Telomere Length Assay kit (Roche Diagnostics, Mannheim Germany). The blotted membranes were hybridized with digoxigenin (DIG)-labeled PNA probe specific for telomeric repeats, followed by incubation with anti-DIG-antibody-alkaline phosphatase according to the manufacturer's instructions. Alkaline phosphatase was quantified using the chemiluminescent substrate. Telomere lengths were calculated according to the manufacturer's instruction.\nLane 1 is a ladder from 21.2 kb to 1.9 kb. Lanes 2 and 3 have 10 μM and 5 μM, respectively, of PMPG free acid (ID#142693). Lanes 4 to 6 have 10 μM, 5 μM, and 2.5 μM, respectively, of PMPG prodrug (ID#142715). Lane 7 has 2 μM of Imetelstat (163 L). Lane 8 has 2 μM of a mismatch. Lanes 9 and 10 have 20 μM and 10 μM, respectively, of PMIBeG free acid [(((2-((2-amino-6-oxo-1H-purin-9(6H)-yl)methyl)allyl)oxy)methyl)phosphonic acid] (ID#142811). Indicated amounts each compound were added to A549 cells. After approximately 70 population doublings, the cells were harvested and telomere lengths determined using TRF. The estimated average telomere lengths were: (1) MM/mismatch control: 7 kb; (2) Imetelstat/163 L: 4.3 kb; (3) PMPG prodrug (10 μM and 5 μM): 4 kb; (4) PMPG free acid (5 μM and 10 μM): 4 kb; (5) PMIBeG prodrug (50 μM): 4.3 kb; (6) PMIBeG free acid (20 μM): 5 kb."}, "immortal U87 cells": {"test_system": "immortal U87 cells", "test": "Telomere repeat fragment (TRF) assay using immortal U87 cells", "format": "cell-based", "conditions": "concentration not given at the value, approximately 20 population doublings", "procedure": "as §1\nTelomere repeat fragment assays using immortal U87 cells were performed. 10 μM or 20 μM PMIBeG prodrug (ID#142820) or PMPG prodrug (ID#142715) were added to the cells. Imetelstat (163 L) was used as a reference and a mismatch was used as a negative control. After approximately 20 population doublings, the cells were harvested and telomere lengths determined using TRF. The estimated average lengths were: (1) mismatch control: 5 kb; (2) Imetelstat (163 L): 3.5 kb; (3) PMIBeG prodrug (ID#142820) at 20 μM: 4 kb; (4) PMIBeG prodrug (ID#142820) at 10 μM: 4.1 kb; (5) PMPG prodrug (ID#142715): 3.5 kb."}, "Caki-1 cells": {"test_system": "Caki-1 cells", "test": "Caki-1 tumor growth in SCID hairless outbred (SHO) mice", "format": "in vivo", "procedure": "Low-passage Caki-1 cells were injected subcutaneously into the flank of SCID hairless outbred (SHO) mice receiving 30 mg/kg of one of the following via intraperitoneal injection: vehicle (PBS with 0.4% Tween 20), Imetelstat (163 L), PMPG free acid (ID#142693), or PMPG prodrug (ID#142715). Calipers were used to measure tumor length and width bi-weekly, and tumor volume was calculated. Once a tumor had grown >50 mm^3, the animal was randomly entered into a study group, either control or treatment. Animals received 30 mg/kg compound via intraperitoneal injection for the duration of the study. The control vehicle was PBS with 0.4% Tween 20. Tumor volume was measured bi-weekly, and animals were sacrificed either when tumor size was >2000 mm^3 or at defined study completion date.\nAt the conclusion of the study, a linear transformation of the tumor growth curves was performed. The slope of the growth curves for each treatment group was derived by using a linear mixed effects model. The Y-intercept was used to confirm random tumor starting size at the time of animals entering into the study."}, "[3]": {"conditions": "Day 10, 30 mg/kg intraperitoneal"}, "[4]": {"conditions": "Day 20, 30 mg/kg intraperitoneal"}, "[5]": {"conditions": "Day 30, 30 mg/kg intraperitoneal"}, "[6]": {"conditions": "Day 40, 30 mg/kg intraperitoneal"}, "[7]": {"conditions": "Day 50, 30 mg/kg intraperitoneal"}, "[8]": {"conditions": "Day 60, 30 mg/kg intraperitoneal"}, "[9]": {"conditions": "linear mixed effects model, change versus vehicle"}},
  "note": "Several values for one entry are separate records, joined by “and”; a condition that tells them apart may be missing. Equal values may be shown once.",
  "data": [
    {"smiles": "CC(Cn1cnc2c(=O)[nH]c(N)nc21)OCP(=O)(O)OP(=O)(O)OP(=O)(O)O", "note": "(single isomer, unassigned) [ID#142692]", "values": [
      {"measurement": "Primer Ext. Assay Notes: telomerase substrate / chain terminator", "setting": "telomerase [1]; listed as PMPGpp", "value": "acts as a chain terminator"},
      {"measurement": "Primer Ext. Assay Notes: telomerase substrate / chain terminator", "setting": "telomerase [1]; listed as R-PMPGpp", "value": "resulting in chain termination"},
      {"measurement": "IC50", "setting": "telomerase [1]", "value": "~1000 nM and 1000 nM"},
      {"measurement": "IC50", "setting": "telomerase [2]", "value": 1, "unit": "µM"}
    ]},
    {"smiles": "CC(C)OC(=O)OCOP(=O)(COC(C)Cn1cnc2c(=O)[nH]c(N)nc21)OCOC(=O)OC(C)C", "note": "(single isomer, unassigned) [ID#142715]", "values": [
      {"measurement": "activity in the cell free telomerase assay", "setting": "telomerase [1]; prodrug itself, cell free", "value": "inactive"},
      {"measurement": "IC50", "setting": "telomerase in HT3 cells; HT3 cells, 0.2 μM to 20 μM, two independent experiments, read-out: Ex vivo Assay IC 50", "value": "1000 to 3000 nM and 1200 to 3200 nM"},
      {"measurement": "EC50", "setting": "telomerase in HT3 cells; Table 8, assay not given, repeat determinations, values coincide with Ex Vivo TRAP, read-out: EC50", "value": "1100 nM and 1200 nM and 3100 nM and 810 nM"},
      {"measurement": "estimated average telomere length", "setting": "A549 cells", "value": 4, "unit": "kb"},
      {"measurement": "estimated average telomere length", "setting": "immortal U87 cells", "value": 3.5, "unit": "kb"},
      {"measurement": "tumor volume", "setting": "Caki-1 cells; [3]", "value": 170.7, "unit": "mm^3"},
      {"measurement": "tumor volume as a percentage of the tumor volume of control vehicle mice", "setting": "Caki-1 cells; [3]", "value": 94, "unit": "%"},
      {"measurement": "tumor volume", "setting": "Caki-1 cells; [4]", "value": 377.5, "unit": "mm^3"},
      {"measurement": "tumor volume as a percentage of the tumor volume of control vehicle mice", "setting": "Caki-1 cells; [4]", "value": 95, "unit": "%"},
      {"measurement": "tumor volume", "setting": "Caki-1 cells; [5]", "value": 706.6, "unit": "mm^3"},
      {"measurement": "tumor volume as a percentage of the tumor volume of control vehicle mice", "setting": "Caki-1 cells; [5]", "value": 95, "unit": "%"},
      {"measurement": "tumor volume", "setting": "Caki-1 cells; [6]", "value": 1186.6, "unit": "mm^3"},
      {"measurement": "tumor volume as a percentage of the tumor volume of control vehicle mice", "setting": "Caki-1 cells; [6]", "value": 95, "unit": "%"},
      {"measurement": "tumor volume", "setting": "Caki-1 cells; [7]", "value": 1845.9, "unit": "mm^3"},
      {"measurement": "tumor volume as a percentage of the tumor volume of control vehicle mice", "setting": "Caki-1 cells; [7]", "value": 95, "unit": "%"},
      {"measurement": "tumor volume", "setting": "Caki-1 cells; [8]", "value": 2713.0, "unit": "mm^3"},
      {"measurement": "tumor volume as a percentage of the tumor volume of control vehicle mice", "setting": "Caki-1 cells; [8]", "value": 96, "unit": "%"},
      {"measurement": "Intercept coefficient of linear transformed tumor growth curve", "setting": "Caki-1 cells; [9]", "value": "−0.093"},
      {"measurement": "Slope coefficient of linear transformed tumor growth curve", "setting": "Caki-1 cells; [9]", "value": "−0.001"}
    ]},
    {"smiles": "CC(Cn1cnc2c(=O)[nH]c(N)nc21)OCP(=O)(O)OP(=O)(O)OP(=O)(O)O", "note": "(single isomer, unassigned) [ID#142751, PMPG free acid, S form]", "values": [
      {"measurement": "IC50", "setting": "telomerase [1]", "value": 13500, "unit": "nM"},
      {"measurement": "IC50", "setting": "telomerase [2]", "value": 14.1, "unit": "µM"}
    ]}
  ]
}
